According to paper PMC8286840, “Identifying SARS-CoV-2 antiviral compounds by screening for small molecule inhibitors of Nsp3 papain-like protease” (Biochemical Journal, 2021):
Where a name gives a salt, the structure may show the parent alone. Read-outs that look alike come from different tables or passages of the source.

What was measured:
[1] = target: T1, SARS-CoV-2 PLpro (nsp3 1564–1878) (Severe acute respiratory syndrome coronavirus 2, UniProt P0DTD1); assay: biochemical; parameters: FRET-quenched peptide (Pro3) cleavage by PLpro, 10 min pre-incubation, slope over 20 min, normalised to no-compound control; settings: low concentration screen, read-out: % of control remaining
[2] = target: T1, SARS-CoV-2 PLpro (nsp3 1564–1878); assay: biochemical; parameters: FRET-quenched peptide (Pro3) cleavage by PLpro, 10 min pre-incubation, slope over 20 min, normalised to no-compound control; settings: high concentration screen, read-out: % of control remaining

Structure (SMILES): O=C(O)CNC(=O)C(CS)Cc1ccccc1 (racemic) [DL-Thiorphan]
- remaining activity at 1.25 µM ([1]; Well no.=1243): 103%
- remaining activity at 3.75 µM ([2]; Well no.=1243): 104%

Structure (SMILES): NCCC[C@](N)(C(=O)O)C(F)F (racemic) [DL-alpha-Difluoromethylornithine hydrochloride]
- remaining activity at 1.25 µM ([1]; Well no.=500): 103%
- remaining activity at 3.75 µM ([2]; Well no.=500): 104%

Structure (SMILES): CCCCCCCCCCCCCCC[C@H](O)[C@H](N)CO (racemic) [DL-erythro-Dihydrosphingosine]
- remaining activity at 1.25 µM ([1]; Well no.=628): 95.5%
- remaining activity at 3.75 µM ([2]; Well no.=628): 93.6%

Structure (SMILES): COC(=O)C(N)Cc1ccc(Cl)cc1 (racemic) [DL-p-Chlorophenylalanine methyl ester hydrochloride]
- remaining activity at 1.25 µM ([1]; Well no.=364): 95.9%
- remaining activity at 3.75 µM ([2]; Well no.=364): 91.1%

Structure (SMILES): N[C@H](C(=O)O)[C@H](O)C(=O)O (racemic) [DL-threo-beta-hydroxyaspartic acid]
- remaining activity at 1.25 µM ([1]; Well no.=418): 96.9%
- remaining activity at 3.75 µM ([2]; Well no.=418): 95.6%

Structure (SMILES): Oc1cc2c(cc1O)[C@H]1c3ccccc3CN[C@@H]1CC2 (racemic) [Dihydrexidine hydrochloride]
- remaining activity at 1.25 µM ([1]; Well no.=645): 87.6%
- remaining activity at 3.75 µM ([2]; Well no.=645): 91.3%

Structure (SMILES): O=C(O)CCC/C=C\C[C@@H]1[C@@H](/C=C/[C@@H](O)COc2cccc(C(F)(F)F)c2)[C@H](O)C[C@@H]1O (racemic) [Fluprostenol]
- remaining activity at 1.25 µM ([1]; Well no.=4528): 96.4%
- remaining activity at 3.75 µM ([2]; Well no.=4528): 99.8%

Structure (SMILES): O=C(C[C@H]1NCCC[C@@H]1O)Cn1cnc2cc(Br)c(Cl)cc2c1=O (racemic) [Halofuginone]
- remaining activity at 1.25 µM ([1]; Well no.=7360): 103%
- remaining activity at 3.75 µM ([2]; Well no.=7360): 95.2%

Structure (SMILES): CC(=O)N1CCN(c2ccc(OC[C@@H]3CO[C@@](Cn4ccnc4)(c4ccc(Cl)cc4Cl)O3)cc2)CC1 (racemic) [Ketoconazole]
- remaining activity at 1.25 µM ([1]; Well no.=877): 107%
- remaining activity at 1.25 µM ([1]; Well no.=1853): 99.4%
- remaining activity at 3.75 µM ([2]; Well no.=877): 107%
- remaining activity at 3.75 µM ([2]; Well no.=1853): 100%

Structure (SMILES): CCN(CC)C(=O)[C@]1(c2ccccc2)C[C@@H]1CN (racemic) [Milnacipran HCl]
- remaining activity at 1.25 µM ([1]; Well no.=4977): 102%
- remaining activity at 3.75 µM ([2]; Well no.=4977): 101%

Structure (SMILES): CN1C(=O)NC(Cc2c[nH]c3c(Cl)cccc23)C1=O (racemic) [Necrostatin 2 (racemate)]
- remaining activity at 1.25 µM ([1]; Well no.=6828): 99.1%
- remaining activity at 3.75 µM ([2]; Well no.=6828): 95%

Structure (SMILES): CCCCCCCCCCCCCCCC(=O)OC(CC(=O)O)C[N+](C)(C)C (racemic) [Palmitoyl-DL-Carnitine chloride]
- remaining activity at 1.25 µM ([1]; Well no.=1098): 86.5%
- remaining activity at 3.75 µM ([2]; Well no.=1098): 85.4%

Structure (SMILES): CCOc1ccccc1O[C@H](c1ccccc1)[C@H]1CNCCO1 (racemic) [Reboxetine mesylate]
- remaining activity at 1.25 µM ([1]; Well no.=4989): 94.7%
- remaining activity at 3.75 µM ([2]; Well no.=4989): 91.1%

Structure (SMILES): C[C@@H](NCCc1ccc(O)cc1)[C@@H](O)c1ccc(O)cc1 (racemic) [Ritodrine (hydrochloride)]
- remaining activity at 1.25 µM ([1]; Well no.=6427): 100%
- remaining activity at 3.75 µM ([2]; Well no.=6427): 91.3%

Structure (SMILES): C[C@@H](NCCc1ccc(O)cc1)[C@@H](O)c1ccc(O)cc1 (racemic) [Ritodrine hydrochloride]
- remaining activity at 1.25 µM ([1]; Well no.=1156): 97.7%
- remaining activity at 3.75 µM ([2]; Well no.=1156): 103%

Structure (SMILES): COc1cc2c(cc1OC)[C@H]1CC(=O)[C@H](CC(C)C)CN1CC2 (racemic) [Tetrabenazine (Racemate)]
- remaining activity at 1.25 µM ([1]; Well no.=8692): 95.2%
- remaining activity at 3.75 µM ([2]; Well no.=8692): 93.1%

Structure (SMILES): N[C@@H]1C[C@H]1c1ccccc1 (racemic) [Tranylcypromine]
- remaining activity at 1.25 µM ([1]; Well no.=1564): 95.7%
- remaining activity at 3.75 µM ([2]; Well no.=1564): 95.7%

Structure (SMILES): COC(=O)C(C)(N)Cc1ccc(O)cc1 (racemic) [alpha-Methyl-DL-tyrosine methyl ester hydrochloride]
- remaining activity at 1.25 µM ([1]; Well no.=1068): 97%
- remaining activity at 3.75 µM ([2]; Well no.=1068): 96.5%

Structure (SMILES): CCCCCCCCCCCCCCCC(=O)NCC(COP(=O)([O-])OCC[N+](C)(C)C)OCC (racemic) [rac-2-Ethoxy-3-hexadecanamido-1-propylphosphocholine]
- remaining activity at 1.25 µM ([1]; Well no.=747): 93.3%
- remaining activity at 3.75 µM ([2]; Well no.=747): 94.6%

Structure (SMILES): CCCCCCCCCCCCCCCCCC(=O)NCC(COP(=O)([O-])OCC[N+](C)(C)C)OCC (racemic) [rac-2-Ethoxy-3-octadecanamido-1-propylphosphocholine]
- remaining activity at 1.25 µM ([1]; Well no.=413): 102%
- remaining activity at 3.75 µM ([2]; Well no.=413): 101%

Structure (SMILES): CCCCCCCCCCCCCCCC(=O)NCC(COP(=O)([O-])OCC[N+](C)(C)C)OC (racemic) [rac-2-Methoxy-3-hexadecanamido-1-propylphosphocholine]
- remaining activity at 1.25 µM ([1]; Well no.=1078): 97.5%
- remaining activity at 3.75 µM ([2]; Well no.=1078): 96.5%

Structure (SMILES): CCCCCCCCCCCCCCCCCC(=O)NCC(COP(=O)([O-])OCC[N+](C)(C)C)OC (racemic) [rac-2-Methoxy-3-octadecanamido-1-propylphosphocholine]
- remaining activity at 1.25 µM ([1]; Well no.=1126): 96.3%
- remaining activity at 3.75 µM ([2]; Well no.=1126): 96.8%

Structure (SMILES): CCCN(CCc1cccs1)C1CCc2c(O)cccc2C1 (racemic) [rac-Rotigotine (Hydrochloride)]
- remaining activity at 1.25 µM ([1]; Well no.=6809): 98.8%
- remaining activity at 3.75 µM ([2]; Well no.=6809): 95.7%

Structure (SMILES): O=C(O)[C@@H]1C[C@@H](C(=O)O)N1 (relative stereo) [trans-Azetidine-2,4-dicarboxylic acid]
- remaining activity at 1.25 µM ([1]; Well no.=68): 104%
- remaining activity at 3.75 µM ([2]; Well no.=68): 103%

Structure (SMILES): CN(C)CCC(c1ccc(Br)cc1)c1ccccn1 (single isomer, unassigned; (+)) [(+)-Brompheniramine maleate]
- remaining activity at 1.25 µM ([1]; Well no.=365): 98.9%
- remaining activity at 3.75 µM ([2]; Well no.=365): 98.5%

Structure (SMILES): CN(C)CCC(c1ccc(Cl)cc1)c1ccccn1 (single isomer, unassigned; (+)) [(+)-Chlorpheniramine maleate]
- remaining activity at 1.25 µM ([1]; Well no.=130): 105%
- remaining activity at 3.75 µM ([2]; Well no.=130): 105%

Structure (SMILES): COc1ccc2c3c1O[C@H]1C(=O)CC[C@@]4(O)C(C2)N(CC2CC2)CCC314 (single isomer, unassigned; (-)) [(-)-3-Methoxynaltrexone hydrochloride]
- remaining activity at 1.25 µM ([1]; Well no.=947): 98.1%
- remaining activity at 3.75 µM ([2]; Well no.=947): 97%

Structure (SMILES): CN1CCCC1c1cccnc1 (single isomer, unassigned; (-)) [(-)-Nicotine hydrogen tartrate salt]
- remaining activity at 1.25 µM ([1]; Well no.=809): 95.3%
- remaining activity at 3.75 µM ([2]; Well no.=809): 92.5%

Structure (SMILES): C[N+]1(C)C2CC(OC(=O)[C@H](CO)c3ccccc3)CC1C1OC12 (single isomer, unassigned; (-)) [(-)-Scopolamine methyl nitrate]
- remaining activity at 1.25 µM ([1]; Well no.=1454): 93.9%
- remaining activity at 3.75 µM ([2]; Well no.=1454): 96.6%

Structure (SMILES): CC(N)[C@H](O)c1ccc(O)c(O)c1 (single isomer, unassigned; (-)) [(-)-alpha-Methylnorepinephrine]
- remaining activity at 1.25 µM ([1]; Well no.=547): 102%
- remaining activity at 3.75 µM ([2]; Well no.=547): 103%

Structure (SMILES): CN1c2ccccc2C(=O)N2CCc3c([nH]c4ccccc34)C21 (stereo in doubt) [Evodiamine]
- remaining activity at 1.25 µM ([1]; Well no.=3809): 95.1%
- remaining activity at 3.75 µM ([2]; Well no.=3809): 98.5%

Structure (SMILES): Cc1ccc(S(=O)(=O)NC(=O)NN2CC3CCC[C@@H]3C2)cc1 (stereo in doubt) [Gliclazide]
- remaining activity at 1.25 µM ([1]; Well no.=2176): 101%
- remaining activity at 3.75 µM ([2]; Well no.=2176): 102%
